Measured values as given in US11459331B2, “Chemical compounds” (Avista Pharma Solutions, Inc., priority 2019, dated 2022).

Target: T1, human EP4 receptor (Homo sapiens, UniProt P35408)
T1 construct: Eurofins Cerep
Assay: human EP4 receptor antagonist screen (Eurofins Cerep; cAMP HTRF, PGE2 30 nM stimulus, CHO cells)
Format: cell-based
Conditions: at 100 nM, EP4(h) antagonist effect, human recombinant (CHO cells), 10 min RT, read-out: % inhibition of control reference agonist response (PGE2)
Method: Compounds were assayed at Eurofins Cerep using the human EP4 receptor antagonist screen. Cellular antagonist effect was calculated as a % inhibition of control reference agonist response for each target (PGE2). In each EP4(h) experiment, a reference antagonist compound, GW627368X, was tested concurrently with the test compounds, and the data were compared with historical values determined at Eurofins. The experiments were accepted in accordance with Eurofins validation Standard Operating Procedure.

T1 sequence (P35408 whole entry): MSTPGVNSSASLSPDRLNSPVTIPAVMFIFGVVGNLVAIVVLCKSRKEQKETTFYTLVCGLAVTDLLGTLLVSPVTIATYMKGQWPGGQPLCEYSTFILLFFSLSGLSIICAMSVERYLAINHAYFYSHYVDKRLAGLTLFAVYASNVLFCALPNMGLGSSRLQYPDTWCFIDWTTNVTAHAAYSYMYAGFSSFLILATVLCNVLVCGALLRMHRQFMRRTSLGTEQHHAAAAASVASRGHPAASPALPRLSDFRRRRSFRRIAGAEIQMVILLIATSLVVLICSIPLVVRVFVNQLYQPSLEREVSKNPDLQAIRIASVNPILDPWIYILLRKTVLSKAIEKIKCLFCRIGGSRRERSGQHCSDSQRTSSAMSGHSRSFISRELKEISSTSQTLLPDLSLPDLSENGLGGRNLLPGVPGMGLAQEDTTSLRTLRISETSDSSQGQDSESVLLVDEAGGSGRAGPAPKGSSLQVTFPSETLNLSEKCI

Structure (SMILES) | inhibition at 0.1 µM [%]
CCc1nc2c(C)nc(-c3ccncc3)cn2c1-c1ccc(CCNC(=O)NS(=O)(=O)c2ccc(C)cc2)cc1 [Compound 13, 1-[2-[4-[2-ethyl-8-methyl-6-(4-pyridyl)imidazo[1,2-a]pyrazin-3-yl]phenyl]ethyl]-3-(p-tolylsulfonyl)urea] | ≥ 50
Cc1ccc(S(=O)(=O)NC(=O)NCCc2ccc(-c3c(-c4ccon4)nc4c(C)nc(C)cn34)cc2)cc1 [Compound 15, 1-[2-[4-(2-isoxazol-3-yl-6,8-dimethyl-imidazo[1,2-a]pyrazin-3-yl)phenyl]ethyl]-3-(p-tolylsulfonyl)urea] | ≥ 50
CCc1nc2c(C)nc(C)cn2c1-c1ccc(CCNC(=O)NS(=O)(=O)c2ccc(Cl)cc2)cc1 [Compound 1, 1-(4-chlorophenyl)sulfonyl-3-[2-[4-(2-ethyl-6,8-dimethyl-imidazo[1,2-a]pyrazin-3-yl)phenyl]ethyl]urea] | ≥ 50
CCc1nc2c(C)nc(C)cn2c1-c1ccc(CCNC(=O)NS(=O)(=O)c2ccccc2C)cc1 [Compound 2, 1-[2-[4-(2-ethyl-6,8-dimethyl-imidazo[1,2-a]pyrazin-3-yl)phenyl]ethyl]-3-(o-tolylsulfonyl)urea] | ≥ 50
